In patent US11414379B2, “SPAK kinase inhibitors as neuroprotective agents” (United States Government as represented by the Department …, priority 2018, dated 2022):

Assays:
[1] = tested on: KCCs sites-1/2 (KCC2 Thr906/1007 or KCC3 Thr991/1048) phosphorylation; experiment: Phosphorylation immunoblot in HEK293 cells; type: cell-based, human; conditions: only at this concentration
Protocol: HEK293 (human embryonic kidney 293) cells were cultured on 10-cm-diameter dishes in DMEM supplemented with 10% (v/v) foetal bovine serum, 2 mM L-glutamine, 100 U/ml penicillin and 0.1 mg/ml streptomycin. HEK293 cells were transfected with a mixture of 20 μl of 1 mg/ml polyethylenimine (Polysciences) and 5-10 μg of plasmid DNA as described previously (Durocher et al., 2002). 36 hours post-transfection cells were stimulated with either control isotonic or hypotonic medium for a period of 30 minutes. Cells were lysed in 0.3 mL of ice-cold lysis buffer/dish, lysates were clarified by centrifugation at 4° C. for 15 minutes at 26,000 g and the supernatant aliquots were frozen in liquid nitrogen and stored at −20° C. Protein concentrations were determined using the Bradford method. Cells were treated with the indicated concentrations of the SPAK/OSR1 inhibitors. […]
The membranes were incubated for 30 min with TBST (Tris-buffered saline, 0.05% Tween-20) containing 5% (w/v) skim milk. […] After repeating the washing steps, signals were detected with enhanced chemiluminescence reagent. […] The densities of bands were measured with ImageJ. […]
HEK293 cells were transfected with a DNA construct encoding wild type N-terminally FLAG-tagged KCC2. […] See FIG. 3 for Western blot quantitation. […]

[2] = tested on: Ang II-mediated hypertensive mice, pdMCAO; experiment: Neurological function tests in HTN mice after pdMCAO; type: in vivo, mouse; conditions: male HTN mice; 1-14 days post-pdMCAO
Protocol: Foot fault, cylinder test, and adhesive tape removal tests were used to assess pdMCAO-induced somatosensory and motor deficits in HTN mice in a blinded manner as described previously (Bhuiyan et al. (2017)J Cereb Blood Flow Metab. 37:2780-2794; Begum et al. (2018) Glia. 66).
Cylinder test: Mice are placed in a transparent cylinder (9 cm in diameter and 15 cm in height) for 10 min and all the forelimb movements of the mice will be recorded. Forepaw (left/right/both) usage on initial contact against the cylinder wall after rearing and during lateral exploration will be recorded. Prior to ischemic stroke, animals were placed in the cylinder for 5 min to establish a baseline symmetry profile.
Foot fault test: Each mouse will be placed on a stainless-steel grid floor (20 cm×40 cm with a mesh size of 4 cm^2) elevated 1 m above the floor. […] Data will be expressed as the number of foot fault errors made by the forelimbs contralateral to the injury hemisphere as a percentage of total steps.
Adhesive contact and removal tests: A piece of adhesive tape (4 mm×3 mm) will be attached to the contralateral forepaw with equal pressure by the experimenter in each trial. The time to make first contact with the tape and the time to remove the tape will be recorded as the contact time and the removal time, respectively. […]

Cc1cc(C(C#N)c2ccc(Cl)cc2)c(Cl)cc1NC(=O)c1cc(I)cc(I)c1O (centres unmarked) [Closantel]
concentration at which phosphorylation of KCCs site-1 was significantly inhibited [1]: 10 µM

Cc1cc(C(C#N)c2ccc(Cl)cc2)c(Cl)cc1NC(=O)c1cc(Cl)ccc1O (centres unmarked) [ZT-1a, 5-chloro-N-(5-chloro-4-((4-chlorophenyl)(cyano)methyl)-2-methylphenyl)-2-hydroxy-benzamide]
foot fault, cylinder and adhesive tape removal tests [2]: less foot faults, less unilateral turns and better performance in adhesive tape removal
